Data published in PMC5458272.
Like-named read-outs stand apart in the source and are kept apart here. Each block holds one compound with its values, some of them ahead of it.

Assays:
Aurora-A/TPX2 complex = biological target: T1, Aurora-A/TPX2 complex (Homo sapiens, UniProt O14965); assay: SPR competition between GST-TPX2-1-43 and compounds for Aurora-A binding; details: for Interference with TPX2 binding to Aurora-A (in words): SPR competition
T1 construct: His-tag (N); host or cells: Escherichia coli BL21(DE3)
T1 sequence (O14965 1-403): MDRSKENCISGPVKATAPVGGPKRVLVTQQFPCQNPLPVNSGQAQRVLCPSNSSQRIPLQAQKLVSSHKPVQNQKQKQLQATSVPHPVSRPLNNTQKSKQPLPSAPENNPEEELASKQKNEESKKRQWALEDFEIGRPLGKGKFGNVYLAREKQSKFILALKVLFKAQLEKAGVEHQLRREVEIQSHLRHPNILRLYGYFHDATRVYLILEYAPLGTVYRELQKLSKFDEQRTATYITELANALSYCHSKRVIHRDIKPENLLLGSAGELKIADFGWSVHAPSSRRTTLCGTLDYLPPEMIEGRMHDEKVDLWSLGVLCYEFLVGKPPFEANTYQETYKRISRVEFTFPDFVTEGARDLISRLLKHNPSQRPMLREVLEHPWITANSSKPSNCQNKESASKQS
Procedure: (§4) TPX2 in running buffer was injected at different concentrations (ranging from 10 nM to 5 μM), in order to determine the affinity constant of the interaction between Aurora-A and TPX2 and the conditions of the competition experiments (flow rate= 30 μl/min). […] IC50 were calculated on the basis of the RU value at each inhibitor concentration (10 sec after the end of each association sensorgram) since TPX2 binding signal decreases by increasing inhibitor concentration. Both rapid binding and rapid dissociation of inhibitors were subtracted from the sensorgrams.

Aurora-A [1] = biological target: T2, Aurora-A (Homo sapiens, UniProt O14965); assay: FastStep SPR direct binding of compounds to immobilized Aurora-A; set-up: His-tag (N); host or cells: Escherichia coli BL21(DE3); details: for Kd: SPR, Aurora-A immobilized on COOH5 sensorchip, affinities from Scatchard plots, ± standard error of best-fit, low affinity given as >100 μM
T2 sequence (O14965 1-403): T1 sequence (O14965 1-403)
Procedure: We evaluated the interaction of the selected compounds with Aurora-A immobilized on a COOH5 sensorchip by FastStep Surface Plasmon Resonance (SPR) experiments. Sensorgrams were obtained using Aurora-A as ligand and injecting increasing concentrations of the inhibitors (see Materials and Methods) as analytes in running buffer (Figure 3A).
SPR experiments were carried out using a SensiQ Pioneer apparatus. The sensor chip (COOH5, with a hydrogel-based sensing surface endowed with high binding capacity) was chemically activated by a 35 μl injection of a 1:1 mixture of 200 mM N-ethyl-N’-(3-[…]) carbodiimide and 50 mM N-hydroxysuccinimide at a flow rate of 5 μl/min. Aurora-A was immobilized on the activated sensor chip via amine coupling. The immobilization was carried out in 20 mM sodium acetate at pH 4.5; the remaining ester groups were blocked by injecting 1 M ethanolamine hydrochloride (35 μl).
Compounds for testing were purchased from Ambinter (Paris, France). […] Compounds were injected onto the sensor chip at a constant flow in FastStep injection experiments, in order to rapidly obtain information on the binding of the analyte at different concentrations, with a single dissociation phase. […] At least two independent experiments were performed and averaged for each series of injections. The interaction of immobilized Aurora-A ligand with the inhibitor compounds was detected through mass concentration-dependent changes in the refractive index on the sensor chip surface, expressed as RUs.

p-Thr288-Aurora-A = assay: Immunofluorescence of Aurora-A auto-phosphorylation on Thr 288 in U2OS prometaphases; assay type: cell-based, human; details: thymidine arrest/release, monastrol added 2 hours before fixation
Procedure: (§1) We next wished to examine how compounds displaying inhibitory activity on the Aurora-A/TPX2 complex formation in vitro affected mitosis in human cells. […] C20 and C23 were tested in the U2OS osteosarcoma cell line, in which we previously characterized significant mitotic defects after Alisertib-dependent Aurora-A inhibition. Briefly, U20S cells were arrested at the G1/S transition by thymidine treatment, released in fresh medium to progress through S and G2 phases, then treated with either C20 or C23 (10 μM) 6 hours after thymidine release (Figure 6A). […] Defects were scored in prometa- and metaphases and included completely disorganized spindles (Figure 6A, second panel), or spindles with supernumerary poles (Figure 6A, third and fourth panel), as typically observed under impaired Aurora-A function. To directly assess the extent of Aurora-A activation we measured Aurora-A auto-phosphorylation on Thr 288. […]
(§2) The human U2OS osteosarcoma cell line (ATCC: HTB-96) was grown at 37°C in a 5% CO2 atmosphere in DMEM, supplemented with 10% fetal bovine serum. […] After further 4 hours cells were harvested and analyzed. […]
(§3) Cells grown on poly-lysine-coated coverslips were fixed with cold methanol, 6 min at -20°C. […] Samples were analyzed using a Nikon Eclipse 90i microscope equipped with a Qicam Fast 1394 CCD camera (QImaging). […]

[2] = tested on: U2OS osteosarcoma cell line; assay: Immunofluorescence of mitotic spindle structure in synchronized U2OS cells; assay type: cell-based, human; details: 10 μM, added 6 hours after thymidine release, fixed after further 4 hours, alpha-tubulin staining
Procedure: as §1, §2, §3

Aurora-A [3] = biological target: T2, Aurora-A; assay: SPR binding of GST-TPX2-1-43 or GST alone to immobilized Aurora-A; details: GST alone as control analyte
Procedure: as §4

Compound: CC1=C(/C(O)=N/c2ccc(F)cc2F)[C@H](c2cccnc2)C2=C(C[C@@H](c3ccccc3)CC2=O)N1 [C22]
Interference with TPX2 binding to Aurora-A (in words) (Aurora-A/TPX2 complex; 1 μM GST-TPX2-1-43): did not interfere with the formation of the Aurora-A/TPX2 complex
IC50 (Aurora-A/TPX2 complex; read-out: IC50): > 100 µM
Kd (Aurora-A [1]; read-out: Kd): 15 ± 6 µM

Compound: CC(Oc1ccc2c(c1)c1ccnc3c4ccccc4c(=O)n2c13)C(=O)NCc1ccc2c(c1)OCO2 (centres unmarked) [C25]
IC50 (Aurora-A/TPX2 complex; read-out: IC50): 40 ± 10 µM
Kd (Aurora-A [1]; read-out: Kd): 12 ± 6 µM

Compound: COc1cc(NC(=S)NC(=O)c2cccc(F)c2)ccc1NC(=O)c1cc2ccccc2o1 [C20]
p-Thr288-Aurora-A signal compared to controls (p-Thr288-Aurora-A): highly significant reduction
Mitotic spindle defects in prometa- and metaphases [2]: aberrant mitotic spindles
IC50 (Aurora-A/TPX2 complex): 20 ± 10 µM
Kd (Aurora-A [1]; Kd): 30 ± 15 µM

Compound: COc1ccc(CNC(=O)C(C)Oc2ccc3c(c2)c2ccnc4c5ccccc5c(=O)n3c24)cc1 (centres unmarked) [C23]
p-Thr288-Aurora-A signal compared to controls (p-Thr288-Aurora-A): highly significant reduction
Mitotic spindle defects in prometa- and metaphases [2]: aberrant mitotic spindles
IC50 (Aurora-A/TPX2 complex; read-out: IC50): 30 ± 8 µM
Kd (Aurora-A [1]; read-out: Kd): 12 ± 5 µM

Compound: GST: Recombinant GST protein alone, from Sigma (SRP5348), control analyte
Kd (Aurora-A [3]): > 5 µM

Compound: COc1cc(Nc2ncc3c(n2)-c2ccc(Cl)cc2C(c2c(F)cccc2OC)=NC3)ccc1C(=O)O [Alisertib, reference compound]
Interference with TPX2 binding to Aurora-A (in words) (Aurora-A/TPX2 complex; 500 nM GST-TPX2-1-43, Supplementary Figure 2): does not interfere with TPX2 binding to Aurora-A
Interference with TPX2 binding to Aurora-A (in words) (Aurora-A/TPX2 complex; 1 μM GST-TPX2-1-43): does not compete with TPX2 binding

Compound: O=C(Nc1cccc2ncccc12)c1ccc2c(c1)OCCCO2 [C03]
Kd (Aurora-A [1]; Kd): > 100 µM

Compound: COc1cc(/C=C2\C(=O)Nc3ccccc32)c(Br)cc1OCc1ccccc1C#N [C19]
Kd (Aurora-A [1]; Kd): > 100 µM

Compound: CCn1c(NC(=O)CCn2c(-c3ccc(OC)cc3)n[nH]c2=S)nc2ccccc21 [C13]
Kd (Aurora-A [1]; Kd): > 100 µM

Compound: CC1=C(C(=O)Nc2cccc(F)c2)[C@H](c2ccccn2)C2=C(C[C@H](c3ccccc3)CC2=O)N1 [C16]
Kd (Aurora-A [1]; Kd): > 100 µM

Compound: O=C1Nc2ccccc2/C1=N/NC(=O)c1ccc2ccccc2n1 [C02]
IC50 (Aurora-A/TPX2 complex; read-out: IC50): 40 ± 10 µM
Kd (Aurora-A [1]; read-out: Kd): 42 ± 9 µM

Compound: CNC(=O)C1CN(C(=O)c2ccc3ccccc3c2)c2ccccc2O1 (centres unmarked) [C10]
Kd (Aurora-A [1]; Kd): > 100 µM

Compound: O=C(NCCOc1ccc(-c2ccc(F)cc2)nn1)C1c2ccccc2Oc2ccccc21 [C14]
Kd (Aurora-A [1]; Kd): > 100 µM

Compound: CC1=NC2=C(C(=O)CC(c3cccs3)C2)C(c2ccccn2)C1C(=O)Nc1cccc(F)c1 (centres unmarked) [C18]
Kd (Aurora-A [1]; read-out: Kd): > 100 µM

Compound: O=C(NCC1Cc2cccc(-c3ccncc3)c2O1)c1ccccc1F (centres unmarked) [C11]
Kd (Aurora-A [1]; Kd): > 100 µM

Compound: O=C(COc1ccc2[nH]c3ccccc3c(=O)c2c1)N1c2ccccc2OCC1c1ccccc1 (centres unmarked) [C21]
Kd (Aurora-A [1]; Kd): > 100 µM

Further lines, with some results ahead:

IC50 (Aurora-A/TPX2 complex): > 100 µM
Kd (Aurora-A [1]; Kd): > 100 µM
Aurora-A binding (in words) (Aurora-A [1]; SPR direct binding): no Aurora-A binding properties
Compound: O=C(Nc1ccc2c(c1)CN(C(=O)c1ccco1)CC2)c1ccc(-c2ccccc2)cc1 [C12]
Interference with TPX2 binding to Aurora-A (in words) (Aurora-A/TPX2 complex; 1 μM GST-TPX2-1-43): did not influence the Aurora-A/TPX2 complex formation

Kd (Aurora-A [1]; Kd): > 100 µM
Compound: O=C1Nc2ccccc2/C1=N\NC(=O)c1cccc2ccccc12 [C01]

Kd (Aurora-A [1]; Kd): > 100 µM
Compound: O=C1Nc2ccc(F)cc2/C1=N\NC(=O)c1ccc2c(c1)OCO2 [C05]

Kd (Aurora-A [1]; Kd): > 100 µM
Compound: CC1=NC2=C(C(=O)CC(c3ccccc3)C2)C(c2ccccn2)C1C(=O)Nc1ccc(F)cc1 (centres unmarked) [C15]

Kd (Aurora-A [1]; Kd): 80 ± 15 µM
Compound: Cc1oc2cc(OCC(N)=O)ccc2c(=O)c1-c1ccc(Cl)cc1 [C09]

Kd (Aurora-A [1]; Kd): > 100 µM
Compound: COc1ccc(-c2n[nH]c(=S)n2CCC(=O)Nc2ccc3nc(N4CCCC4)sc3c2)cc1 [C24]

Kd (Aurora-A [1]; Kd): > 100 µM
Compound: CC1=NC2=C(C(=O)CC(c3cccs3)C2)C(c2ccccn2)C1C(=O)Nc1ccc(F)cc1 (centres unmarked) [C17]

Kd (Aurora-A [1]; Kd): > 100 µM
Compound: Cc1ccc2c(c1)/C(=N\NC(=O)C1COc3ccccc3O1)C(=O)N2 (centres unmarked) [C07]

Kd (Aurora-A [1]; Kd): > 100 µM
Compound: O=C1Cc2cc(S(=O)(=O)Nc3ccccc3C(=O)O)ccc2N1 [C06]

Kd (Aurora-A [1]; Kd): 80 ± 30 µM
Compound: CN1/C(=C\c2cccc3[nH]ccc23)C(=O)c2ccccc2S1(=O)=O [C08]

Kd (Aurora-A [1]; Kd): 100 µM
Compound: O=C1Nc2ccccc2/C1=N\NC(=O)C1COc2ccccc2O1 (centres unmarked) [C04]
